Reference: publication PMC9656787, “Design, Synthesis and Biological Evaluation of Novel 1,3,5-Triazines: Effect of Aromatic Ring Decoration on Affinity to 5-HT7 Receptor” (International Journal of Molecular Sciences, 2022)
“And” between values parts separate entries of the source, which are not always exact repeats. Equal values may be shown once.

Assays:
5-HT1A receptor = molecular target: T1, 5-HT1A receptor (Homo sapiens, UniProt P08908); test: Radioligand binding assay, 5-HT1A receptor; settings: mean ± SD, triplicate at 7 concentrations, Cheng-Prusoff; read-out: Affinity Ki 5-HT1AR
T1 construct: host or cells: cell membranes from cultured cells
T1 sequence (P08908 1-422): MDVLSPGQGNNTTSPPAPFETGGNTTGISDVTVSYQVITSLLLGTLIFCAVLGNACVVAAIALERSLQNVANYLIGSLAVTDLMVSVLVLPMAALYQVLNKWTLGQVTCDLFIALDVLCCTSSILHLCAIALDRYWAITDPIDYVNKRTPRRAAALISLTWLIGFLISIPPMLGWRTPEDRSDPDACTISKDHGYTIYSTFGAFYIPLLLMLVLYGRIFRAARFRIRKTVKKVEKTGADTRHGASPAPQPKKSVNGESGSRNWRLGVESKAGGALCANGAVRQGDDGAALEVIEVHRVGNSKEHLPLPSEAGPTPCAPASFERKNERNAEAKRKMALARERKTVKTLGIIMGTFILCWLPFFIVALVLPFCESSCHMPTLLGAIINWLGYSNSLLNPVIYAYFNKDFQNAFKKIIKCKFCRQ
Procedure: (§1) The affinity of the studied compounds to 5-HT1A, 5-HT2A, 5-HT6, 5-HT7, and D2 receptors was evaluated by a radioligand assay, as reported previously (Table 1). Each compound was tested in triplicate at seven concentrations (from 0.1 nM to 100 µM). Inhibition constants (Ki) were calculated from the Cheng–Prusoff equation [23].
(§2) The cell culture, cell membranes, and radioligand binding assays were performed in accordance with standard protocols.

5-HT7 receptor = molecular target: T2, 5-HT7 receptor (Homo sapiens, UniProt P34969); test: Radioligand binding assay, 5-HT7 receptor; settings: for activity with respect to 5-HT7R (in words): SAR discussion of radioligand data; for Ki: mean ± SD, triplicate at 7 concentrations, Cheng-Prusoff, read-out: Affinity Ki 5-HT7R
T2 construct: host or cells: cell membranes from cultured cells
T2 sequence (P34969 1-432 limits assumed): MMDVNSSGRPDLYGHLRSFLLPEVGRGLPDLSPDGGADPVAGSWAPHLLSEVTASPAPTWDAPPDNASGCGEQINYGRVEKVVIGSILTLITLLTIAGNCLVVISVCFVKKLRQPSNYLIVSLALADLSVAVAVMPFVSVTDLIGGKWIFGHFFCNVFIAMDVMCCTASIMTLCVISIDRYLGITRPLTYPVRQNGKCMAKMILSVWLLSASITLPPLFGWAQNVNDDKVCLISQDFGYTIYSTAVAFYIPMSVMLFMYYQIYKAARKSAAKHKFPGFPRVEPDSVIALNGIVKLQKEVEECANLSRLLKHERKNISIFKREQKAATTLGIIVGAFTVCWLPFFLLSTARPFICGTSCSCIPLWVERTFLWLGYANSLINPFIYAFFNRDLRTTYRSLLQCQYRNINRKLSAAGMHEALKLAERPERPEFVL
Procedure: as §1, §2

5-HT2A receptor = molecular target: T3, 5-HT2A receptor (Homo sapiens, UniProt P28223); test: Radioligand binding assay, 5-HT2A receptor; settings: mean ± SD, triplicate at 7 concentrations, Cheng-Prusoff; read-out: Affinity Ki 5-HT2AR
T3 construct: host or cells: cell membranes from cultured cells
T3 sequence (P28223 whole entry): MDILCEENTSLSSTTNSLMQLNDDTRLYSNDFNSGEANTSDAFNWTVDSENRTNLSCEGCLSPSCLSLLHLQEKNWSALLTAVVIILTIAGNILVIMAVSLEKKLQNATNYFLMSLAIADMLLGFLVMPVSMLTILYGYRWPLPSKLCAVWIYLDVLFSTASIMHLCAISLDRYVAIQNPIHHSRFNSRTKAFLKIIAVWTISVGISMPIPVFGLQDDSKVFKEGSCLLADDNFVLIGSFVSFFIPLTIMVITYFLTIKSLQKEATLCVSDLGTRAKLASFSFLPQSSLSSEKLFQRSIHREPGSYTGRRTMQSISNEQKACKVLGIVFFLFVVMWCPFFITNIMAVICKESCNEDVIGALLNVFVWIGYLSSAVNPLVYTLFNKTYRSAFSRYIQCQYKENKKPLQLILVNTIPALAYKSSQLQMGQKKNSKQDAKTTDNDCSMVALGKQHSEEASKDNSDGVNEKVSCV
Procedure: as §1, §2

5-HT6 receptor = molecular target: T4, 5-HT6 receptor (Homo sapiens, UniProt P50406); test: Radioligand binding assay, 5-HT6 receptor; settings: mean ± SD, triplicate at 7 concentrations, Cheng-Prusoff; read-out: Affinity Ki 5-HT6R
T4 construct: host or cells: cell membranes from cultured cells
T4 sequence (P50406 whole entry): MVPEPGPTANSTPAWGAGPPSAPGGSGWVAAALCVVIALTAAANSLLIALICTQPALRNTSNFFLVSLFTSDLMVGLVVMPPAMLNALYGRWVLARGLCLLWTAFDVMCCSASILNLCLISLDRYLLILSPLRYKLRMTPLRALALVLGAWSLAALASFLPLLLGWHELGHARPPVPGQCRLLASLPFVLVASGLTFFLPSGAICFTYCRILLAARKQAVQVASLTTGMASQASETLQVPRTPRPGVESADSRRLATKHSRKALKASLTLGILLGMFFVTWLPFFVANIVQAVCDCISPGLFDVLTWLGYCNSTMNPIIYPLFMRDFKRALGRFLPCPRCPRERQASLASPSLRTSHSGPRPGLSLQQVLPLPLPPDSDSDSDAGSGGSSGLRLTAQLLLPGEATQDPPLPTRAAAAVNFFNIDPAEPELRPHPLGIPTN
Procedure: as §1, §2

D2 receptor = molecular target: T5, D2 receptor (Homo sapiens, UniProt P14416); test: Radioligand binding assay, D2 receptor; settings: mean ± SD, triplicate at 7 concentrations, Cheng-Prusoff; read-out: Affinity Ki D2R
T5 construct: host or cells: cell membranes from cultured cells
T5 sequence (P14416 whole entry): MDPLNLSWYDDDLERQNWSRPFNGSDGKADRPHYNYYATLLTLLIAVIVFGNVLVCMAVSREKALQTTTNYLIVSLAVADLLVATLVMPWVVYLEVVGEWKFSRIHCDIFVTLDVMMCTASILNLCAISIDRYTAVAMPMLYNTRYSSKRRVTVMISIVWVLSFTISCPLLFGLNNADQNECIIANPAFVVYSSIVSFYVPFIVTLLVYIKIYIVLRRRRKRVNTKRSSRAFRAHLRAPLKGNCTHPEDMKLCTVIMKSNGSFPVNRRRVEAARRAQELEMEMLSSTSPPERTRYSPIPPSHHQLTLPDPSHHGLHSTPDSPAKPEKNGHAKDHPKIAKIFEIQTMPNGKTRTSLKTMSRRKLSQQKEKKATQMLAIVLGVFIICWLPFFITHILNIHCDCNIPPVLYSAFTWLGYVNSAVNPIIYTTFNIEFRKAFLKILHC
Procedure: as §1, §2

In the case of `Cl.N#Cc1ccc2[nH]cc(CCNc3nc(N)nc(NCCc4ccccc4)n3)c2c1` [Compound 1, 3-(2-((4-Amino-6-(Phenethylamino)-1,3,5-Triazin-2-yl)Amino)Ethyl)-1H-Indole-5-Carbonitrile Hydrochloride], the Ki (5-HT1A receptor) is reported as 13000 nM, the “activity with respect to 5-HT7R (in words)” value (from here on “activity”) (5-HT7 receptor) is reported as “activity toward the 5-HT7 receptor being lost” and the Ki (5-HT7 receptor) is reported as 2880 ± 351 nM. For the same molecule, the melting point was 95 to 98 °C and the Ki (5-HT2A receptor) was 927 ± 927 nM.
Work on `Cl.Nc1nc(NCCc2ccccc2)nc(NCCc2c[nH]c3ccc(Br)cc23)n1` [Compound 3, N^2-(2-(5-Bromo-1H-Indol-3-yl)ethyl)-N^4-Phenethyl-1,3,5-Triazine-2,4,6-Triamine Hydrochloride] yielded a Ki (5-HT1A receptor) of 11000 nM, a Ki (5-HT7 receptor) of 126 ± 17 nM and a melting point of 82 to 85 °C. The Ki (5-HT6 receptor) was 234 ± 27 nM and the Ki (5-HT2A receptor) was 942 ± 112 nM.
Molecule `Cl.Nc1nc(NCCc2ccccc2)nc(NCCc2c[nH]c3ccc(Cl)cc23)n1` [Compound 4, N^2-(2-(5-Chloro-1H-Indol-3-yl)ethyl)-N^4-Phenethyl-1,3,5-Triazine-2,4,6-Triamine Hydrochloride] has a Ki (5-HT1A receptor) of 3910 ± 581 nM, a Ki (D2 receptor) of 14500 nM and a Ki (5-HT7 receptor) of 481 ± 23 nM. The melting point was 106 to 108 °C, the Ki (5-HT6 receptor) was 702 ± 48 nM and the Ki (5-HT2A receptor) was 559 ± 41 nM.
Molecule `COc1ccc2[nH]cc(CCNc3nc(N)nc(NCCc4ccccc4)n3)c2c1.Cl` [Compound 5, N^2-(2-(5-Methoxy-1H-Indol-3-yl)ethyl)-N^4-Phenethyl-1,3,5-Triazine-2,4,6-Triamine Hydrochloride] has a Ki (5-HT1A receptor) of 3130 ± 758 nM, a Ki (5-HT7 receptor) of 629 ± 148 nM and a melting point of 111 to 115 °C. The Ki (5-HT6 receptor) was 509 ± 33 nM and the Ki (5-HT2A receptor) was 883 ± 108 nM.
For `Cc1ccc2[nH]cc(CCNc3nc(N)nc(NCCc4ccccc4)n3)c2c1.Cl` [Compound 6, N^2-(2-(5-Methyl-1H-Indol-3-yl)ethyl)-N^4-Phenethyl-1,3,5-Triazine-2,4,6-Triamine Hydrochloride], the Ki (5-HT1A receptor) was 16600 nM, the Ki (5-HT7 receptor) was 100 ± 15 nM and the melting point was 118 to 121 °C. The Ki (5-HT6 receptor) was 714 ± 112 nM and the Ki (5-HT2A receptor) was 835 ± 168 nM.
For `Cl.Nc1nc(NCCNc2ccccc2Cl)nc(NCCc2c[nH]c3ccccc23)n1` [Compound 7, N^2-(2-(1H-Indol-3-yl)ethyl)-N^4-(2-((2-Chlorophenyl)amino)ethyl)-1,3,5-Triazine-2,4,6-Triamine Hydrochloride], the Ki (5-HT1A receptor) was 30800 nM, the Ki (D2 receptor) was 4290 ± 1030 nM and the “activity” value (5-HT7 receptor) was “moderately active”. For the same molecule, the Ki (5-HT7 receptor) was 423 ± 37 nM, the melting point was 105 to 108 °C and the Ki (5-HT6 receptor) was 892 ± 144 nM. For the same molecule, the Ki (5-HT2A receptor) was 2120 ± 352 nM.
With `Cl.Nc1nc(NCCNc2cccc(Cl)c2)nc(NCCc2c[nH]c3ccccc23)n1` [Compound 8, N^2-(2-(1H-Indol-3-yl)ethyl)-N^4-(2-((3-Chlorophenyl)amino)ethyl)-1,3,5-Triazine-2,4,6-Triamine Hydrochloride] the Ki (5-HT1A receptor) was 15600 nM, the Ki (D2 receptor) was 1240 ± 257 nM and the “activity” value (5-HT7 receptor) was “moderately active”. It also gave a Ki (5-HT7 receptor) of 131 ± 16 nM, a melting point of 77 to 82 °C and a Ki (5-HT6 receptor) of 4020 ± 719 nM. For the same molecule, the Ki (5-HT2A receptor) was 1800 ± 264 nM.
In the case of `Cl.Nc1nc(NCCNc2ccc(Cl)cc2)nc(NCCc2c[nH]c3ccccc23)n1` [Compound 9, N^2-(2-(1H-Indol-3-yl)ethyl)-N^4-(2-((4-Chlorophenyl)amino)ethyl)-1,3,5-Triazine-2,4,6-Triamine Hydrochloride], the Ki (5-HT1A receptor) is reported as 16200 nM, the “activity” value (5-HT7 receptor) is reported as “active” and the Ki (5-HT7 receptor) is reported as 19 ± 4 nM. It also gave a melting point of 97 to 100 °C, a Ki (5-HT6 receptor) of 641 ± 84 nM and a Ki (5-HT2A receptor) of 2700 ± 581 nM.
In the case of `Cl.Nc1nc(NCCNc2ccccc2F)nc(NCCc2c[nH]c3ccccc23)n1` [Compound 10, N^2-(2-(1H-Indol-3-yl)ethyl)-N^4-(2-((2-Fluorophenyl)amino)ethyl)-1,3,5-Triazine-2,4,6-Triamine Hydrochloride], the Ki (5-HT1A receptor) is reported as 36500 nM, the Ki (D2 receptor) is reported as 20400 nM and the “activity” value (5-HT7 receptor) is reported as “moderately active”. For the same molecule, the Ki (5-HT7 receptor) was 132 ± 9 nM, the melting point was 94 to 97 °C and the Ki (5-HT6 receptor) was 982 ± 115 nM. The Ki (5-HT2A receptor) was 1510 ± 362 nM.
For `Cl.Nc1nc(NCCNc2cccc(F)c2)nc(NCCc2c[nH]c3ccccc23)n1` [Compound 11, N^2-(2-(1H-Indol-3-yl)ethyl)-N^4-(2-((3-Fluorophenyl)amino)ethyl)-1,3,5-Triazine-2,4,6-Triamine Hydrochloride], the Ki (5-HT1A receptor) was 34600 nM, the Ki (D2 receptor) was 13800 nM and the “activity” value (5-HT7 receptor) was “active”. For the same molecule, the Ki (5-HT7 receptor) was 24 ± 5 nM, the melting point was 74 to 79 °C and the Ki (5-HT6 receptor) was 979 ± 237 nM. It also gave a Ki (5-HT2A receptor) of 1280 ± 168 nM.
Molecule `COc1cccc(NCCNc2nc(N)nc(NCCc3c[nH]c4ccccc34)n2)c1.Cl` [Compound 14, N^2-(2-(1H-Indol-3-yl)ethyl)-N^4-(2-((3-Methoxyphenyl)amino)ethyl)-1,3,5-Triazine-2,4,6-Triamine Hydrochloride] has a Ki (D2 receptor) of 36000 nM, a Ki (5-HT7 receptor) of 1040 ± 81 nM and a melting point of 140 to 143 °C. It also gave a Ki (5-HT6 receptor) of 2790 ± 342 nM and a Ki (5-HT2A receptor) of 2450 ± 273 nM.
Work on `COc1ccc(NCCNc2nc(N)nc(NCCc3c[nH]c4ccccc34)n2)cc1.Cl` [Compound 15, N^2-(2-(1H-Indol-3-yl)ethyl)-N^4-(2-((4-Methoxyphenyl)amino)ethyl)-1,3,5-Triazine-2,4,6-Triamine Hydrochloride] yielded a Ki (5-HT7 receptor) of 756 ± 107 nM and a melting point of 150 to 153 °C.
For `Cl.Nc1nc(NCCc2c[nH]c3ccccc23)nc(NCCN2C(=O)c3ccccc3C2=O)n1` [Compound 16, 2-(2-((4-((2-(1H-Indol-3-yl)ethyl)amino)-6-Amino-1,3,5-Triazin-2-yl)amino)ethyl)isoindoline-1,3-Dione Hydrochloride], the Ki (D2 receptor) was 13300 nM, the Ki (5-HT7 receptor) was > 1000 nM and 21600 nM and the melting point was 136 to 138 °C. It also gave a Ki (5-HT6 receptor) of 8760 ± 1760 nM and a Ki (5-HT2A receptor) of 22400 nM.
`Cl.Nc1nc(NCCc2c[nH]c3ccccc23)nc(NCCn2cnc3ccccc32)n1` [Compound 17, N^2-(2-(1H-Benzo[d]imidazol-1-yl)ethyl)-N^4-(2-(1H-Indol-3-yl)ethyl)-1,3,5-Triazine-2,4,6-Triamine Hydrochloride] showed a Ki (5-HT1A receptor) of 63000 nM, a Ki (5-HT7 receptor) of 227 ± 37 nM and a melting point of 195 to 200 °C. It also gave a Ki (5-HT6 receptor) of 2630 ± 427 nM and a Ki (5-HT2A receptor) of 11100 nM.
In the case of `Cc1nc2ccccc2n1CCNc1nc(N)nc(NCCc2c[nH]c3ccccc23)n1.Cl` [Compound 18, N^2-(2-(1H-indol-3-yl)ethyl)-N^4-(2-(2-methyl-1H-benzo[d]imidazol-1-yl)ethyl)-1,3,5-triazine-2,4,6-triamine hydrochloride], the Ki (5-HT7 receptor) is reported as > 1000 nM and 4130 nM, the melting point is reported as 190 to 194 °C and the Ki (5-HT6 receptor) is reported as 1960 ± 269 nM. It also gave a Ki (5-HT2A receptor) of 9350 ± 831 nM.
For `Cl.Nc1nc(NCCc2c[nH]c3ccccc23)nc(NCCn2c(C(F)(F)F)nc3ccccc32)n1` [Compound 19, N^2-(2-(1H-Indol-3-yl)ethyl)-N^4-(2-(2-(Trifluoromethyl)-1H-Benzo[d]imidazol-1-yl)ethyl)-1,3,5-Triazine-2,4,6-Triamine Hydrochloride], the Ki (5-HT1A receptor) was 76200 nM, the Ki (5-HT7 receptor) was > 1000 nM and 3460 nM and the melting point was 108 to 110 °C. For the same molecule, the Ki (5-HT6 receptor) was 825 ± 72 nM and the Ki (5-HT2A receptor) was 4030 ± 537 nM.
In the case of `Cl.Nc1nc(NCCc2c[nH]c3ccccc23)nc(Nc2cccc(Cl)c2)n1` [Compound 20, N^2-(2-(1H-Indol-3-yl)ethyl)-N^4-(3-Chlorophenyl)-1,3,5-Triazine-2,4,6-Triamine Hydrochloride], the Ki (5-HT1A receptor) is reported as 14100 nM, the Ki (D2 receptor) is reported as 2270 ± 153 nM and the “activity” value (5-HT7 receptor) is reported as “inactive”. For the same molecule, the Ki (5-HT7 receptor) was 1950 ± 261 nM, the melting point was 174 to 178 °C and the Ki (5-HT6 receptor) was 2230 ± 528 nM. It also gave a Ki (5-HT2A receptor) of 2690 ± 549 nM.
For `Cl.Nc1nc(NCCc2c[nH]c3ccccc23)nc(Nc2ccc(F)cc2)n1` [Compound 21, N^2-(2-(1H-Indol-3-yl)ethyl)-N^4-(4-Fluorophenyl)-1,3,5-Triazine-2,4,6-Triamine Hydrochloride], the Ki (D2 receptor) was 7030 ± 439 nM, the “activity” value (5-HT7 receptor) was “inactive” and the Ki (5-HT7 receptor) was 2050 ± 419 nM. For the same molecule, the melting point was 232 to 235 °C, the Ki (5-HT6 receptor) was 1770 ± 243 nM and the Ki (5-HT2A receptor) was 884 ± 73 nM.
For `COc1ccc(Nc2nc(N)nc(NCCc3c[nH]c4ccccc34)n2)cc1.Cl` [Compound 22, N^2-(2-(1H-Indol-3-yl)ethyl)-N^4-(4-Methoxyphenyl)-1,3,5-Triazine-2,4,6-Triamine Hydrochloride], the Ki (5-HT1A receptor) was 79800 nM, the “activity” value (5-HT7 receptor) was “weakly active” and the Ki (5-HT7 receptor) was 727 ± 107 nM. The melting point was 194 to 196 °C, the Ki (5-HT6 receptor) was 3740 ± 539 nM and the Ki (5-HT2A receptor) was 3110 ± 438 nM.
